Data reported in US6376688B1, “Modified polyunsaturated fatty acids” (Peptide Technology Limited, priority 1994, dated 2002).
Read-outs that look alike come from different tables or passages of the source.

Key:
[1] = tested on: chloroquine sensitive P. falciparum; assay: Direct antimalarial activity of novel fatty acids (malaria growth inhibition, 3H-hypoxanthine); format: cell-based
Experimental: The plates were then incubated overnight. Individual well contents were collected onto glass filter paper and incorporated 3H measured in a liquid scintillation counter. Percent growth inhibition of the parasite was then calculated.

[2] = tested on: P. falciparum; assay: Fatty acid stimulated neutrophil-mediated anti-malarial activity; format: cell-based; settings: for inhibition relative to 22:6 (%) at 16 µM: Plasmodium falciparum
Experimental: To overcome fatty acid insolubility in aqueous solution mixed dipalmitoyl phophatidylcholine (DPC, 400 μg): fatty acid (100 μg) micells were prepared in HBSS by sonication. Neutrophils were pretreated for 30 min at 37° C. In some experiments PUFA were solubilized in ethanol. Aliquots of RBC (5×10^6 with […] parasitaemia) was mixed with neutrophils […] in the wells of a 96-well microtitre plate and than incubated for 2 hr at 37° C. in 5% CO2 in air before adding 1 μCi of 3H-hypoxanthine. The plates were then incubated overnight. Individual well contents were collected onto glass filter paper and incorporated 3H measured in a liquid scintillation counter. Percent growth inhibition of the parasite was then calculated.

[3] = tested on: TNFα production; assay: PHA-induced TNFα production by mononuclear cells (ELISA); format: cell-based, human
Experimental: (§1) Mononuclear cells were separated from peripheral blood of normal human donors as described by Ferrante and Thong (1978. . . ). The mononuclear cells were resuspended in RPMI-1640 containing 20% human AB serum and placed into 96 well microtrays (50 μl per well, cell density […]). Fatty acid (66 μm) was then added in 50 μl and pre-incubated with the cells for 30 min at 37° C. in 5% CO2. Mitogen (PHA, ConA, PWM, Staph. aureus) was then added in 100 μl and the cells incubated for 66 hours at 37° C. in 5% CO2 before the addition of tritiated thymidine (1 μCi/well). After a total of 72 h in culture the cells were harvested and proliferation (thymidine incorporation) and supernatant's assayed for the presence of cytokines. Cytokine levels in culture supernatants were determined by specific ELISA using anti-cytokine antibodies. The following cytokine levels were determined TNFα, TNFβ, interferon-γ, IL-1β, IL-2.

[4] = tested on: cytokine production (TNFα, interferon, IL-2); assay: PHA-induced cytokine production by human peripheral blood mononuclear cells (FIG. 3, FIG. 4); format: cell-based; settings: macrophage and T cell-derived cytokines
Experimental: as §1, with “cytokines.” for “cytokines. Cytokine levels in culture supernatants were determined by specific ELISA using anti-cytokine antibodies. The following cytokine levels were determined TNFα, TNFβ, interferon-γ, IL-1β, IL-2.”
Cytokine levels in culture supernatants were determined by specific ELISA using anti-cytokine antibodies. The following cytokine levels were determined TNFα, TNFβ, interferon-γ, IL-1β, IL-2.

[5] = tested on: human umbilical vein endothelial cells; assay: TNFα-induced expression of E-selectin (ELAM-1) by human umbilical vein endothelial cells; format: cell-based; settings: FIG. 5
Experimental: Human umbilical cord endothelial cells (5×10^4.passage 1) were plated onto the centre 60 wells of 96 well microtrays, the remaining wells were filled with pyrongen-free distilled water to reduce evaporation in the wells containing cells. The cells were fed with fresh medium (M199 supplemented with 20% FCS and endothelial cell growth supplement) every second day until confluent. On the day preceding the assay the cells were washed with HBSS and re-fed. At the time of assay the medium was aspirated and fatty acides prepared in media were added to each well and incubated for various times as shown in FIGS. At 37-0-C in 5% CO2. After this incubation the cells were washed and treated with either TNF or PMA before being washed three times in PBS and fixed (100 μl, 0.025% glutaraldehyde in PBS, overnight at 4° C.). The wells were washed with PBS and either anti-ELAM (Becton-Dickinson, 100 μl, 1/1.000 in M199 containing 20% FCS) or anti-ICAM (Immunotech, 100 μl, […] in M199 containing 20% FCS) was added and incubated for 1 hour at room temperature after which the wells were washed with PBS ant 100 μl of rabbit anti-mouse Ig-HRP conjugate was added (1/1.000. Dako). A further incubation at room temperature for one hour followed before the plates were washed three time prior to the addition of 100 μl of the substrate (ABTS). Colour development was measured at 410 nm in a microplate reader.

[6] = neutrophil-mediated killing of P. falciparum, Table 2
[7] = Table 5, second printing (stands where Table 6 is expected)

Compound	EC50 ([1]; Plasmodium falciparum) [µM]	% INHIBITION OF CYTOKINE PRODUCTION (PUFA AT 20 μM) [3, 7] [%]	EC50 [1] [µM]	% INHIBITION OF CYTOKINE PRODUCTION (PUFA AT 20 μM) ([3]; Table 5, first printing) [%]	further results
CCCCC/C=C\C/C=C\C/C=C\C/C=C\CCCCSCC(=O)O [β-thia 23:4 (n-6), Z,Z,Z,Z-(5,8,11,14-Eicosatetraenylthio) acetic acid]	15 to 30	35			inhibition relative to 22:6 (%) at 16 µM [2, 6]: 150%
CCCCC/C=C\C/C=C\C/C=C\CCCCCSCCC(=O)O [γ-thia 22.3 (n-6), Z,Z,Z-(6,9,12-Octadecatrienylthio)propionic acid]		41	45	41	
CC/C=C\CC(O)/C=C/C=C\CCCCCCCCOCC(=O)O (stereo not drawn) [16-OH-β-oxa 21:3 (n-3), Z,E,Z-(13-Hydroxy-9, 11, 15-octadecatrienyloxy)acetic acid]	40				inhibition at 20 µM ([3]; Homo sapiens, PUFA at 20 μM, Table 5, read-out: % INHIBITION OF CYTOKINE PRODUCTION (PUFA AT 20 μM)): 68%
CCCCCC(O)/C=C/C=C\C/C=C\CCCCCOCC(=O)O (stereo not drawn) [16-OH-β-oxa 21:3 (n-6), Z,Z,E-(13-Hydroxy-6,9,11-octadecatienyloxy)acetic acid]		71	50	71	% INHIBITION RELATIVE TO 22:6 AT 16 μM [2, 6]: 33%
CC/C=C\C/C=C\C/C=C\CCCCCCCCSCC(=O)O [β-thia 21:3 (n-3), Z,Z,Z-(9,12,15-Octadecatrienylthio)acetic acid]	30 to 35	17			inhibition relative to 22:6 (%) at 16 µM [2, 6]: 73%
CCC=CCC=CCC=CCC=CCC=CCCCC(=O)O [20:5, 5,8, 11, 14, 17-eicosapentaenoic]					effect on PHA-induced cytokine production [4]: inhibit in vitro production of macrophage and T cell-derived cytokines
CC/C=C\C/C=C\C/C=C\CCCCCCCCSCCC(=O)O [γ-thia 22.3 (n-3), Z,Z,Z-(9,12,15-Octadecatrienylthio)proponionic acid]		25	45	25	
CCCCC/C=C\C/C=C\C/C=C\C/C=C\CCCCSC(CC(=O)O)C(=O)O (stereo not drawn) [α-carboxymethyl-β-thia 23.4 (n-6)]			50		
CC/C=C\C/C=C\C/C=C\C/C=C\CCCCCOCC(=O)O [β-oxa 21:4 (n-3), Z,Z,Z,Z-(6,9, 12, 15-Octadecatetraenyloxy) acetic acid]	40				inhibition relative to 22:6 (%) at 16 µM [2, 6]: 85%
CCCCCC=CCC=CCC=CCC=CCCCC(=O)O [20:4, 5,8,11,14-Eicosatetraenoic acid]					effect on TNFα-induced expression of E-selectin [5]: inhibit TNFα-induced expression of E-selection
CCC=CCC=CCC=CCC=CCC=CCC=CCCC(=O)O [22:6, 4,7, 10, 13, 16, 19-docosahexaenoic acid]					effect on PHA-induced cytokine production [4]: inhibit in vitro production of macrophage and T cell-derived cytokines
Z,Z,Z,Z,Z,Z-(9,12,15-Octadecatrienylthio)acetic acid [β-thia 25.6 (n-3)]		90	25	90	% INHIBITION RELATIVE TO 22:6 AT 16 μM [2, 6]: 47%
Z,Z,Z,Z-(5,8,11,14-Eicosatetraenylthio) propionic acid [γ-thia 24.4 (n-6)]		34	15	34	% INHIBITION RELATIVE TO 22:6 AT 16 μM ([2]; Table 2, second printing (stands where Table 3 is expected)): 91%; % INHIBITION RELATIVE TO 22:6 AT 16 μM ([2]; Table 2, third printing (stands where Table 4 is expected)): 91%; % INHIBITION RELATIVE TO 22:6 AT 16 μM [2, 6]: 91%
Z,Z,Z,Z-(6,9,12-Octadecatrienylthio)acetic acid [β-thia 21:3 (n-6)]		17	30 to 50	17	
CC/C=C\C/C=C\C/C=C\C/C=C\C/C=C\C/C=C\CCCOCC(=O)O [β-oxa 25.6 (n-3), Z,Z,Z,Z,Z,Z-(4,7, 10, 13, 16, 19-Docosahexaenyloxy) acetic acid]	< 60				
CCCCC/C=C\C/C=C\C/C=C\C/C=C\CCCCOCC(=O)O [β-oxa 23.4 (n-6), Z,Z,Z,Z(5,8, 11, 14-Eicosatetraenyloxy) acetic acid]		25	< 30	25	
CC/C=C\C/C=C\C/C=C\CCCCCCCCOCC(=O)O [β-oxa 21:3 (n-3), Z,Z,Z-(9, 12, 15-Octadecatrienyloxy) acetic acid]	30	39			inhibition relative to 22:6 (%) at 16 µM [2, 6]: 45%
CCCCC/C=C\C/C=C\C/C=C\CCCCCOCC(=O)O [β-oxa 21:3 (n-6), Z,Z,Z-(6,9, 12-Octadecatrienyloxy) acetic acid]	< 30	38			
